The record followed here is patent publication US10023591B2, “Heterocyclic derivatives and use thereof” (C&C RESEARCH LABORATORIES, priority 2014, dated 2018).

The subject of one test is STAT3. The test is described as follows: STAT3 reporter gene assay (luciferase), LNCaP stable cell line pSTAT3-TA-luc, IL-6 stimulation. Conditions: Homo sapiens. The format is cell-based, human. A digest of the protocol:
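LNCaP cells stably carrying pSTAT3-TA-luc were plated 24 h in 3% DCC-FBS medium, then given compound followed by IL-6 (10 ng/mL final) for 24 h at 37 °C. Luciferase was read from lysates, with CellTiter-Glo viability on a duplicate plate. Stimulated 0.1% DMSO wells served as uninhibited control.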
(In general: Reporter assays use an easily measured gene product as a stand-in for the process of interest.)

Another test concerns STAT1. The test can be described thus: STAT1 reporter gene assay (luciferase), U2OS stable cell line pGL4-STAT1-TA-luc, IFN-γ stimulation. The format is cell-based, human. The following applies: Homo sapiens, IFN-γ 50 ng/mL, 8 hours, read-out: IC50 (μM) pSTAT1. In short, it runs like this: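 U2OS cells stably carrying a STAT1-driven luciferase reporter were treated with serially diluted compounds plus IFN-γ (50 ng/mL final) for 8 h at 37 °C in 10% FBS medium. Luciferase read after lysis; parallel plate assessed for cytotoxicity by CellTiter-Glo.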

Test [1] relates to NCI-N87 stomach cancer cell line. The test is described as follows: Cell growth inhibition assay, NCI-N87 (CellTiter-Glo). The format is cell-based. Conditions: Homo sapiens; NCI-N87, 5,000 cells/well, 96 hours. A digest of the protocol: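 Cells seeded at 3,000 (DU-145), 5,000 (NCI-N87) or 10,000 (LNCaP, MDA-MB-468) per well, LNCaP in medium with 10 ng/mL IL-6. Serially diluted compound for 96 h at 37 °C (MDA-MB-468 in air, others 5% CO2); viability by CellTiter-Glo luminescence versus 0.1% DMSO wells.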

Test [2] deals with MDA-MB-468 breast cancer cell line. The test is described as follows: Cell growth inhibition assay, MDA-MB-468 (CellTiter-Glo). It counts as cell-based. The following applies: Homo sapiens, MDA-MB-468, 96 hours. On the procedure: (§1) The inhibitory effects of the compounds of the present invention against the growth of cancer cells were evaluated as shown below. The cancer cell lines including prostate cancer cell lines (LNCaP, DU-145), stomach cancer cell line (NCI-N87), and breast cancer cell lines (MDA-MB-468) were cultured under the protocol provided by each supplier. A medium supplemented with 10 ng/mL of IL-6 was used for LNCaP, a prostate cancer cell line, when treated with a drug. Each type of cells to be used in experiments was sub-cultured in a 96-well plate by counting the exact number of cells using Tali™ Image-based Cytometer (Life Technologies). In a 96-well plate, DU-145 was employed with 3,000 cells/well; NCI-N87 was employed with 5,000 cells/well; and LNCaP and MDA-MB-468 were employed with 10,000 cells/well. The cells were treated with the compounds listed in Examples which were diluted in various concentrations. Upon completion of the compounds treatment, LNCaP, DU-145, NCI-N87 cells were cultured at 37° C. under 5% CO2 for 96 hours, and MDA-MB-468 cells were cultured at 37° C. in air for 96 hours. Subsequently, the cells were observed under microscope and drug precipitation and particular findings were investigated and recorded. And then, the 96-well plate was placed at room temperature for 30 minutes, added with 20 pt/well of CellTiter-Glo solution (Cat No. G7573, Promega) and shaken for 10 minutes, followed by being subjected to the measurement using PHERAstar™ microplate reader (BMG LABTECH) according to the supplier's general luminometer protocol. Wells where only culture liquid added without cell plating were used as a negative control, whereas wells where culture liquid containing 0.1% DMSO instead of the compounds listed in Examples were used as a positive control.
(ATP-based viability assays read luminescence as a measure of living cells.)

Test [3] relates to LNCaP prostate cancer cell line. The test can be described thus: Cell growth inhibition assay, LNCaP (CellTiter-Glo). The following applies: Homo sapiens; LNCaP, 10,000 cells/well, medium with 10 ng/mL IL-6, 96 hours. The format is cell-based. The procedure: as §1
Test [4] concerns DU-145 prostate cancer cell line. The test can be described thus: Cell growth inhibition assay, DU-145 (CellTiter-Glo). It counts as cell-based. The following applies: Homo sapiens; DU-145, 3,000 cells/well, 96 hours. On the procedure:
as §1

In general, IC50 refers to the concentration that gives 50% inhibition. Take `Cc1cnc(Oc2cc(NC(=O)c3cc4cc(C(C)(C)S(C)(=O)=O)ccc4s3)cc(Cl)n2)s1` [Example 109, N-(2-chloro-6-((5-methylthiazol-2-yl)oxy)pyridin-4-yl)-5-(2-(methylsulfonyl)propan-2-yl)benzo[b]thiophene-2-carboxamide]: the IC50 in the test on STAT3 is 0.46 µM; in the test on STAT1 it was greater than 50 µM; in test [1], 1.7 µM; in test [2], 0.068 µM.
For `CC(C)(c1ccc2sc(C(=O)Nc3cc(Cl)nc(Oc4ccc(OC(F)(F)F)cc4)c3)cc2c1)S(C)(=O)=O` [Example 84, N-(2-chloro-6-(4-(trifluoromethoxy)phenoxy)pyridin-4-yl)-5-(2-(methylsulfonyl)propan-2-yl)benzo[b]thiophene-2-carboxamide], in that order: 0.0065 µM, greater than 50 µM, 0.02 µM and 0.0026 µM.
Take `CC(C)(c1ccc2sc(C(=O)Nc3cc(Cl)nc(Oc4csc(C(F)(F)F)c4)c3)cc2c1)S(C)(=O)=O` [Example 117, N-(2-chloro-6-((5-(trifluoromethyl)thiophen-3-yl)oxy)pyridin-4-yl)-5-(2-(methylsulfonyl)propan-2-yl)benzo[b]thiophene-2-carboxamide]: the IC50 with STAT3 is 0.028 µM; in the test on STAT1, greater than 50 µM; in test [1], 0.037 µM; in test [2], 0.0053 µM.
For `CC(C)(c1ccc2sc(C(=O)Nc3cc(Cl)nc(Oc4ccc(Cl)cc4F)c3)cc2c1)S(C)(=O)=O` [Example 83, N-(2-chloro-6-(4-chloro-2-fluorophenoxy)pyridin-4-yl)-5-(2-(methylsulfonyl)propan-2-yl)benzo[b]thiophene-2-carboxamide], in that order: 0.0082 µM, greater than 50 µM, 0.02 µM and 0.0052 µM.
`CC(C)(c1ccc2sc(C(=O)Nc3cc(Cl)nc(Oc4ccc(F)c(Cl)c4)c3)cc2c1)S(C)(=O)=O` [Example 71, N-(2-chloro-6-(3-chloro-4-fluorophenoxy)pyridin-4-yl)-5-(2-(methylsulfonyl)propan-2-yl)benzo[b]thiophene-2-carboxamide]: the IC50 in the test with STAT3 was 0.011 µM; in the test with STAT1 it was greater than 50 µM; in test [1], 0.02 µM; in test [2], 0.0056 µM.
On to `Cc1ccc(Oc2cc(NC(=O)c3cc4cc(C(C)(C)S(C)(=O)=O)ccc4s3)cc(Cl)n2)s1` [Example 120, N-(2-chloro-6-((5-methylthiophen-2-yl)oxy)pyridin-4-yl)-5-(2-(methylsulfonyl)propan-2-yl)benzo[b]thiophene-2-carboxamide], for which the IC50 with STAT3 was found to be 0.078 µM; in the test with STAT1, 39.6 µM; in test [1] it was 0.12 µM; in test [2], 0.026 µM.
Turning to `CC(C)(c1ccc2sc(C(=O)Nc3cc(Cl)nc(Oc4ccsc4Cl)c3)cc2c1)S(C)(=O)=O` [Example 121, N-(2-chloro-6-((2-chlorothiophen-3-yl)oxy)pyridin-4-yl)-5-(2-(methylsulfonyl)propan-2-yl)benzo[b]thiophene-2-carboxamide], the IC50 in the test on STAT3 is 0.027 µM; in the test on STAT1, greater than 50 µM; in test [1] it was 0.15 µM; in test [2], 0.027 µM.
On to `Cc1csc(Oc2cc(NC(=O)c3cc4cc(C(C)(C)S(C)(=O)=O)ccc4s3)cc(Cl)n2)n1` [Example 119, N-(2-chloro-6-((4-methylthiazol-2-yl)oxy)pyridin-4-yl)-5-(2-(methylsulfonyl)propan-2-yl)benzo[b]thiophene-2-carboxamide], for which the IC50 in the test on STAT3 is 2.8 µM; with STAT1 it was 12.8 µM; in test [1], 7.8 µM; in test [2], greater than 0.1 µM.
With `CC(C)(c1ccc2sc(C(=O)Nc3cc(Cl)nc(Oc4ccc(C(F)(F)F)cc4)c3)cc2c1)S(C)(=O)=O` [Example 67, N-(2-chloro-6-(4-(trifluoromethyl)phenoxy)pyridin-4-yl)-5-(2-(methylsulfonyl)propan-2-yl)benzo[b]thiophene-2-carboxamide], the IC50 is 0.0084 µM in the test with STAT3; greater than 50 µM in the test with STAT1; 0.047 µM in test [3]; 0.0053 µM in test [4]; 0.021 µM in test [1].
Turning to `CC(C)(c1ccc2sc(C(=O)Nc3cc(Cl)nc(Oc4ccc(F)c(F)c4)c3)cc2c1)S(C)(=O)=O` [Example 79, N-(2-chloro-6-(3,4-difluorophenoxy)pyridin-4-yl)-5-(2-(methylsulfonyl)propan-2-yl)benzo[b]thiophene-2-carboxamide], the IC50 in the test with STAT3 was 0.041 µM; with STAT1, greater than 50 µM; in test [1], 0.043 µM; in test [2] it was 0.0074 µM.
On to `CC(C)(c1ccc2sc(C(=O)Nc3cc(Cl)nc(Oc4cccc(OC(F)(F)F)c4)c3)cc2c1)S(C)(=O)=O` [Example 81, N-(2-chloro-6-(3-(trifluoromethoxy)phenoxy)pyridin-4-yl)-5-(2-(methylsulfonyl)propan-2-yl)benzo[b]thiophene-2-carboxamide], for which the IC50 in the test with STAT3 is 0.005 µM; in the test with STAT1 it was greater than 50 µM; in test [1] it was 0.033 µM; in test [2], 0.0038 µM.
For `CC(C)(c1ccc2cc(C(=O)Nc3cc(Cl)cc(Oc4ccc(Cl)cc4)c3)sc2c1)S(C)(=O)=O` [Example 58, N-(3-chloro-5-(4-chlorophenoxy)phenyl)-6-(2-(methylsulfonyl)propan-2-yl)benzo[b]thiophene-2-carboxamide], the IC50 in the test on STAT3 is 0.86 µM; in the test on STAT1 it was greater than 50 µM; in test [3] it was 0.24 µM; in test [4] it was 0.11 µM.
Consider `CC(C)(c1ccc2sc(C(=O)Nc3cc(Cl)cc(C4(c5ccc(Cl)cc5)CC4)c3)cc2c1)S(C)(=O)=O` [Example 97, N-(3-chloro-5-(1-(4-chlorophenyl)cyclopropyl)phenyl)-5-(2-(methylsulfonyl)propan-2-yl)benzo[b]thiophene-2-carboxamide], for which the IC50 is 0.025 µM in the test on STAT3, greater than 50 µM in the test on STAT1, 0.028 µM in test [3] and 0.016 µM in test [4].
For `CC(C)(c1ccc2sc(C(=O)Nc3cc(Cl)cc(Oc4ccc(F)c(F)c4)c3)cc2c1)S(C)(=O)=O` [Example 52, N-(3-chloro-5-(3,4-difluorophenoxy)phenyl)-5-(2-(methylsulfonyl)propan-2-yl)benzo[b]thiophene-2-carboxamide], in that order: 0.025 µM, greater than 50 µM, 0.022 µM and 0.015 µM.
For `CN(c1cc(Cl)cc(NC(=O)c2cc3cc(C(C)(C)S(C)(=O)=O)ccc3s2)c1)c1ccc(F)cc1F` [Example 98, N-(3-chloro-5-((2,4-difluorophenyl)(methyl)amino)phenyl)-5-(2-(methylsulfonyl)propan-2-yl)benzo[b]thiophene-2-carboxamide], the IC50 in the test with STAT3 was 0.031 µM; in the test on STAT1, greater than 50 µM; in test [3], 0.031 µM; in test [4], 0.0066 µM.
Consider `CC(C)(c1ccc(F)cc1)c1cc(Cl)cc(NC(=O)c2cc3cc(C(C)(C)S(C)(=O)=O)c(F)cc3s2)c1` [Example 19, N-(3-chloro-5-(2-(4-fluorophenyl)propan-2-yl)phenyl)-6-fluoro-5-(2-(methylsulfonyl)propan-2-yl)benzo[b]thiophene-2-carboxamide], for which the IC50 was 0.029 µM in the test on STAT3, greater than 50 µM in the test on STAT1, 0.043 µM in test [3] and 0.022 µM in test [4].
